Experimental data reported in patent publication US9517221B2, “(2R)-2-propyloctanoic acid for functional brain disease” (ONO PHARMACEUTICAL CO., LTD., priority 2006, dated 2016).
Where a name gives a salt, the structure may show the parent alone.

Columns and labels:
[1] = test system: olfactory bulbectomized rats; experiment: Hyperemotional reactivity (hyperemotional score) of olfactory bulbectomized rats; format: in vivo, rat; set-up: key to Hyperemotional score (mean ± S. E.), One day administration, Before administration / Hyperemotional score (mean ± S. E.), One day administration, After administration / Hyperemotional score (mean ± S. E.), Seven days administration, Before administration / Hyperemotional score (mean ± S. E.), Seven days administration, After administration: irritability score per Gomita et al. (1983) criteria
Experimental: SPF rats (Crlj: WI) were used in the test. The animal for olfactory bulbectomy was anesthetized with pentobarbital sodium (Nembutal R Injection, Dainippon Pharmaceutical, dose: 1 mL/kg (intraperitoneal administration)), and the head was fixed using a brain stereotaxic apparatus (ASI Instruments, Inc., NARISHIGE). After incising the head skin, holes are opened at right and left olfactory bulb regions of the skull using a dental drill (manufactured by MINITOR), and the right and left olfactory bulbs were removed by sucking them using an aspirator connected to a tip-removed oral sonde, and the head skin was stitched thereafter. In this connection, in the case of the animals for sham-operation, anesthesia, brain fixation and head skin incision were carried out in the same manner as in the animals for olfactory bulbectomy, holes are opened at right and left olfactory bulb regions of the skull and the head skin was stitched without carrying out suction removal of the olfactory bulbs. The rats after olfactory bulbectomy were put into a series of five stainless steel cages, each of which was partitioned into two parts with an acrylic board for individual rearing space, and individually reared under a dark condition. The rats were subjected to the following tests of (2) and (3).
• (a) Sham-operation group (12 animals); • (b) Vehicle control group (12 animals); • (c) 3 mg/kg administration group (12 animals) of (2R)-2-propyloctanoic acid; • (d) 10 mg/kg administration group (12 animals) of (2R)-2-propyloctanoic acid; • (e) 10 mg/kg administration group (12 animals) of Milnacipran hydrochloride. [Drug Administration]
As shown below, drug solution or vehicle was administered once a day for 8 days, a total of 8 times, at a respective liquid dose of 5 mL/kg. • (a) Sham-operation group: vehicle (0.1% by volume Tween 80) aqueous solution; • (b) Vehicle control group: vehicle (0.1% by volume Tween 80) aqueous solution; • (c) 3 mg/kg administration group of (2R)-2-propyloctanoic acid: a drug solution in which (2R)-2-propyloctanoic acid was prepared to be 0.6 mg/mL with the vehicle; • (d) 10 mg/kg administration group of (2R)-2-propyloctanoic acid: a drug solution in which (2R)-2-propyloctanoic acid was prepared to be 2.0 mg/mL with the vehicle; • (e) 10 mg/kg administration group of milnacipran hydrochloride: a drug solution in which Milnacipran hydrochloride was prepared to be 2.3 mg/mL with the vehicle (Milnacipran itself is included in 2.0 mg/mL). (2) Examination of the Activity for Hyperemotional Reactivity <Evaluation Method>
Evaluation of the hyperemotional reactivity was carried out (1) before the grouping, (2) from 1 hour to 1 hour and 10 minutes after administration of the 1 day drug administration, (3) before administration of the 7 days administration and (4) from 1 hour to 1 hour and 10 minutes after the administration (a total of 4 times), by scoring the degree of irritability once a rat in accordance with the following evaluation criteria of hyperemotional reactivity (hyperemotional score: prepared based on the method of Gomita et al. (Folia Pharmacologica Japonica, 82, 267, 1983). Additionally, all of the conditions of the evaluation were shot and recorded using a video camera (SSC-DC430, SONY) and handled as reference data.

[2] = test system: olfactory bulbectomized rats; experiment: Anxiolytic behavior on elevated plus maze of olfactory bulbectomized rats; format: in vivo, rat; details: dose 10 mg/kg once a day for 8 days; 5 minutes test 1 hour after 8 days administration
Experimental: SPF rats (Crlj: WI) were used in the test. The animal for olfactory bulbectomy was anesthetized with pentobarbital sodium (Nembutal R Injection, Dainippon Pharmaceutical, dose: 1 mL/kg (intraperitoneal administration)), and the head was fixed using a brain stereotaxic apparatus (ASI Instruments, Inc., NARISHIGE). After incising the head skin, holes are opened at right and left olfactory bulb regions of the skull using a dental drill (manufactured by […]), and the right and left olfactory bulbs were removed by sucking them using an aspirator connected to a tip-removed oral sonde, and the head skin was stitched thereafter. In this connection, in the case of the animals for sham-operation, anesthesia, brain fixation and head skin incision were carried out in the same manner as in the animals for olfactory bulbectomy, holes are opened at right and left olfactory bulb regions of the skull and the head skin was stitched without carrying out suction removal of the olfactory bulbs. The rats after olfactory bulbectomy were put into a series of five stainless steel cages, each of which was partitioned into two parts with an acrylic board for individual rearing space, and individually reared under a dark condition. The rats were subjected to the following tests of (2) and (3). • (a) Sham-operation group (12 animals); • (b) Vehicle control group (12 animals); • (c) 3 mg/kg administration group (12 animals) of (2R)-2-propyloctanoic acid; • (d) 10 mg/kg administration group (12 animals) of (2R)-2-propyloctanoic acid; • (e) 10 mg/kg administration group (12 animals) of Milnacipran hydrochloride. [Drug Administration] As shown below, drug solution or vehicle was administered once a day for 8 days, a total of 8 times, at a respective liquid dose of 5 mL/kg. • (a) Sham-operation group: vehicle (0.1% by volume Tween 80) aqueous solution; • (b) Vehicle control group: vehicle (0.1% by volume Tween 80) aqueous solution; • (c) 3 mg/kg administration group of (2R)-2-propyloctanoic acid: a drug solution in which (2R)-2-propyloctanoic acid was prepared to be 0.6 mg/mL with the vehicle; • (d) 10 mg/kg administration group of (2R)-2-propyloctanoic acid: a drug solution in which (2R)-2-propyloctanoic acid was prepared to be 2.0 mg/mL with the vehicle; • (e) 10 mg/kg administration group of milnacipran hydrochloride: a drug solution in which Milnacipran hydrochloride was prepared to be 2.3 mg/mL with the vehicle (Milnacipran itself is included in 2.0 mg/mL). (2) Examination of the Activity for Hyperemotional Reactivity <Evaluation Method> Evaluation of the anxiolytic behavior on an elevated plus maze was carried out once per animal for 5 minutes from 1 hour to 1 hour and 10 minutes after 8 days of the administration, in accordance with the following method. Each animal was softly put on a platform of elevated plus maze which is described later, toward one of the open arms. Thereafter, behavior of the animal was shot using a video camera (CCD-DC430, SONY) set up the elevated plus maze, and the images were analyzed by a video image behavior analyzing device (Etho Vision, manufactured by Noldus). Additionally, the images from the video camera were recorded and handled as reference data. In this connection, when the animal fell, it was regarded as staying on the open arm, and the animal was quickly returned to the place or the open arm where it was present just before the falling. The evaluation was carried out on the respective items shown by A to H (A: frequency of approach to the open arm, B: frequency of approach to the closed arm, C: frequency of approach to the platform, D: stayed time (second) on the open arm, E: stayed time (second) on the closed arm, F: stayed time (second) on the platform, G: defecation frequency on the open arm, platform and closed arm, and H: urination frequency on the open arm, platform and closed arm), by measuring A to F using the video image behavior analyzing device, and by measuring G and H after completion of the measurement. […]

CCN(CC)C(=O)C1(c2ccccc2)CC1CN (stereo not drawn) [Milnacipran hydrochloride, reference compound]
Hyperemotional score (mean ± S. E.), Seven days administration, After administration ([1]; dose 10 mg/kg once a day, 1 hour to 1 hour 10 minutes after 7 days administration): 7.6 ± 0.8 | Hyperemotional score (mean ± S. E.), Seven days administration, Before administration ([1]; dose 10 mg/kg once a day, before administration of the 7 days administration): 10.2 ± 1.1 | Hyperemotional score (mean ± S. E.), One day administration, After administration ([1]; dose 10 mg/kg, 1 hour to 1 hour 10 minutes after 1 day administration): 14.3 ± 1.0 | Hyperemotional score (mean ± S. E.), One day administration, Before administration ([1]; dose 10 mg/kg, baseline before grouping, 12 animals): 20.0 ± 0.0 | Time (seconds) stayed on closed arm (mean ± S. E.) [2]: 196.0 ± 19.8 s | Time (seconds) stayed on open arm (mean ± S. E.) [2]: 72.7 ± 18.3 s
